This note sets out measurements from EP0891773A1, “Use of gamma-linolenic acid for preventing oxydative stress” (priority 1997, dated 1999).

The assay relates to fibroblastes dermiques humains normaux. Description: Protective effect on normal human dermal fibroblasts under oxidative stress (TBH 10^-4 M, 1 h); cell viability by neutral red uptake. The settings on record: for activity at 0.1 µM: 0,1 µM. In kind it is cell-based. The protocol:
Mesure de l'effet protecteur de l'acide γ-linolénique sur des fibroblastes dermiques humains normaux soumis à un stress oxydatif:
Des cultures de fibroblastes dermiques humains normaux sont réalisées selon la méthode décrite par Gilchrest B. A. dans J. Gerontol., vol.35, pp. 537-541, 1980.
A J(0) on ensemence des plaques multipuits de type COSTAR à raison de 50000 cellules par puits. Les cellules sont cultivées dans du milieu MEM Eagle (GIBCO) contenant 10% de sérum de veau foetal, 2 mM de L-glutamine, 1% acides aminés non essentiels, 1 mM pyruvate de sodium et 1% d'un mélange antibiotiques/antimicotiques vendu par la société GIBCO.
A J(+1) le milieu de culture est remplacé par du milieu MEM sans sérum de veau foetal contenant ou ne contenant pas (témoin) la substance à tester.
Des solutions d'acides gras essentiels sont préparés dans des solutions à 0.1 % d'albumine humaine. Les solutions mères sont à 2. 10^-3 M , la dilution minimale est à 10^-4 M dans le milieu de culture sans sérum de veau foetal. L'addition de vitamine E à 30 µM final permet d'éviter les problèmes d'autooxydation des acides gras. Les cellules sont traitées 3 jours sans changement de milieu.
Un stress oxydatif est induit à J(+4). Pour cela, le milieu de culture est retiré et les plaques sont rincées avec du tampon phosphate salin (PBS). 50% des puits sont traités par une solution de terbutyl hydroperoxyde (TBH) à 10^-4 M, les 2 autres puits étant laissés en PBS et l'incubation se poursuit pendant une heure dans un incubateur à 37°C en atmosphère contenant 5% de CO2.
Au bout d'une heure, les plaques sont rincées 3 fois au PBS pour enlever toute trace de TBH. Une solution mère de rouge neutre à […] est diluée au 1/40 dans un milieu minimum (MEM de marque GIBCO). La solution diluée est placée 1h au bain marie à 37°C pour une bonne dissolution puis filtrée sur 0.22 µm pour éliminer les cristaux résiduels. La solution ainsi préparée est ajoutée sur les cellules et les plaques sont mises à l'incubateur à 37°C en atmosphère contenant 5% de CO2 pour 3 h. Après incubation les plaques sont vidées de leur milieu et rincées au PBS. Une solution à 0.4% de formaldéhyde et 1% de chlorure de calcium dans de l'eau est ajoutée dans chaque puits pour une durée de 1 minute. On remplace alors cette solution par une solution à 49% d'éthanol pur dans l'eau et 1% d'acide acétique glacial. On laisse la coloration se développer 30 mn à température ambiante et on lit les plaques au spectrophotomètre à 540 nm.
Pour chaque condition (traité ou témoin), le calcul est effectué de la manière suivante :
Proportion de cellules stressées : rapport de la moyenne des densités optiques mesurées pour les puits traités sur la moyenne des densités optiques mesurées pour les puits non traités.
Pourcentage de résistance : Proportion de cellules stressées dans l'essai sur proportion de cellules stressées dans le témoin x 100
Par ce calcul, le témoin est considéré à 100 % de protection contre le stress oxydatif et les produits présentent un effet protecteur supérieur ou inférieur au témoin.

[1] abbreviates: Fibroblast, table a, comparison of essential fatty acids, 10 µM, 3 days pretreatment, then TBH 10^-4 M 1 h, control = 100, read-out: Pourcentage de résistance.
[2] abbreviates: Fibroblast, table c, comparison with known antioxidants, 10 µM, control = 100, read-out: Pourcentage de résistance.
[3] abbreviates: Fibroblast, table c, comparison with known antioxidants, 100 µM, control = 100, read-out: Pourcentage de résistance.
Setting [4] is: Fibroblast, table c, comparison with known antioxidants, 1 mM, control = 100, read-out: Pourcentage de résistance.

Like-named read-outs stand apart in the source and are kept apart here.

`CCCCC/C=C\C/C=C\CCCCCCCC(=O)O` [Acide Linoléique]: the activity at 10 µM under setting [1] amounted to 100%.
For the molecule `CCCCC/C=C\C/C=C\C/C=C\CCCCC(=O)O` [Acide γ-Linolénique, acide γ-linolénique], the activity at 0.01 µM (Fibroblast, table b, dose effect, 0,01 µM, control = 100, read-out: Pourcentage de résistance) came to 123%. For the same molecule, the activity at 0.1 µM reads like this: (Fibroblast, table b, dose effect, control = 100, read-out: Pourcentage de résistance) 130%; (Fibroblast, table c, comparison with known antioxidants, control = 100, read-out: Pourcentage de résistance) 112%. Besides, the activity at 1 µM (Fibroblast, table b, dose effect, 1 µM, control = 100, read-out: Pourcentage de résistance) came out at 119%. For the same molecule, the activity at 10 µM turned out to be 121% (Fibroblast, table b, dose effect, 10 µM, control = 100, read-out: Pourcentage de résistance) and 124% under setting [1]. In addition, for the setting “Fibroblast, table b, dose effect, 100 µM, control = 100, read-out: Pourcentage de résistance”, the activity at 100 µM was found to be 95%. In addition, under “concentration of maximum effect in the dose-effect test (table b)”, the effet maximum is listed as 0,1 µM. Also, the “résistance au stress oxydatif” value (conclusion in words on table a (10 µM), only this fatty acid among those tested) was “augmente la résistance au stress oxydatif”. Besides, the “effet protecteur du stress oxydatif” value (conclusion in words on table c, versus reference antioxidants) is listed as “comparable à celui de molécules reconnues comme anti-oxydants de référence”.
In the case of `N[C@@H](CCC(=O)N[C@@H](CS)C(=O)NCC(=O)O)C(=O)O` [Glutathion], under setting [2], the activity at 10 µM stood at 95%. Besides, under setting [3], the activity at 100 µM worked out at 93%. The activity at 1000 µM under setting [4] came to 100%.
For `CC(=O)N[C@@H](CS)C(=O)O` [N-Acétyl cystéine] the same measures were 94%, 103% and 107%.
Turning to `S=C(S)N1CCCC1` [Pyrrolidine dithiocarbamate], the activity at 20 µM (Fibroblast, table c, comparison with known antioxidants, 20 µM, control = 100, read-out: Pourcentage de résistance) was determined as 97%. For the same molecule, under setting [3], the activity at 100 µM was 112%.
Turning to Vitamine E, the “Pourcentage de résistance” value amounted to 112% (table c, comparison with known antioxidants, 10 µM, control = 100); 107% (table c, comparison with known antioxidants, 100 µM, control = 100); 111% (table c, comparison with known antioxidants, 1 mM, control = 100).
